This note sets out measurements from patent US10947252B2, “Inhibitors of KEAP1-Nrf2 protein-protein interaction” (Janssen Pharmaceutica NV, priority 2018, dated 2021).

Assay [1] relates to Glo-Response ARE-luc2P HEK293 cell line. The experiment in a line: ARE luciferase reporter cell-based assay.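 Also: luciferase signal tracks Nrf2 activation of the ARE once compounds disrupt KEAP1-Nrf2 binding, read with One-Glo reagent, DMSO serving as low control.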 The following applies: Homo sapiens, HEK293, 24 h, average of results obtained.
The target in assay [2] is Kelch domain of human KEAP1 (321-624 aa) (Homo sapiens (Human), UniProt Q14145). The experiment in a line: KEAP1 KELCH ThermoFluor binding assay.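 Also: Ligand-induced melting temperature shift of E. coli-expressed KEAP1 Kelch protein, Kd estimated from concentration-response curves of ΔTm.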 Particulars: KEAP Kelch […], 1,8-ANS, pH 7.0, average of results obtained, read-out: Tf Kd. Background: Differential scanning fluorimetry follows unfolding on heating by fluorescence.
Kelch domain of human KEAP1 (321-624 aa), sequence (Q14145 321-624): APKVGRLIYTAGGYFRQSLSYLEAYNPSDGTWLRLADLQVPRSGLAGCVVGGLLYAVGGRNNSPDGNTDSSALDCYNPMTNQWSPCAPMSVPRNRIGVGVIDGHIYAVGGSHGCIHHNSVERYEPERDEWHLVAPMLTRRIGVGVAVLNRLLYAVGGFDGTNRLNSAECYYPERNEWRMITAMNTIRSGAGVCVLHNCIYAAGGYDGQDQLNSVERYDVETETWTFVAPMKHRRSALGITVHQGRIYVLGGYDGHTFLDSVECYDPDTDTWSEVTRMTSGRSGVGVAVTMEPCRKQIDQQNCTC

For `Cc1ccc([C@H](CC(=O)O)c2ccn3c(C(F)(F)F)nnc3c2C)nc1CN1CC2(CC2)Oc2ncc(F)cc2S1(=O)=O` (single isomer, unassigned) [Example 510, (*R)-3-(6-((8′-Fluoro-1′,1′-dioxidospiro[cyclopropane-1,4′-pyrido[2,3-b][1,4,5]oxathiazepin]-2′(3′H)-yl)methyl)-5-methylpyridin-2-yl)-3-(8-methyl-3-(trifluoromethyl)-[1,2,4]triazolo[4,3-a]pyridin-7-yl)propanoic Acid], the EC50 in assay [1] amounted to 314 nM. Also, the Kd in assay [2] was under 1 nM.

Compound `Cc1ccc([C@H](c2ccn3c(C(F)(F)F)nnc3c2C)C(C)(C)C(=O)O)cc1CN1C[C@@]2(CCOC2)Oc2ncccc2S1(=O)=O` (single isomer, unassigned) [Example 386, (*R)-3-(3-(((*R)-1′,1′-Dioxido-4,5-dihydro-2H-spiro[furan-3,4′-pyrido[2,3-b][1,4,5]oxathiazepin]-2′(3′H)-yl)methyl)-4-methylphenyl)-2,2-dimethyl-3-(8-methyl-3-(trifluoromethyl)-[1,2,4]triazolo[4,3-a]pyridin-7-yl)propanoic Acid] gave an EC50 in assay [1] of 343 nM. Besides, the Kd in assay [2] amounted to 1060 nM.

In assay [1], `CC[C@@H]1CN(Cc2nc([C@@H](CC(=O)O)c3ccc4c(nnn4C4CC4)c3C)ccc2C)S(=O)(=O)c2cccnc2O1` (single isomer, unassigned) [Example 175, (*S)-3-(1-Cyclopropyl-4-methyl-1H-benzo[d][1,2,3]triazol-5-yl)-3-(6-(((R)-4-ethyl-1,1-dioxido-3,4-dihydro-2H-pyrido[2,3-b][1,4,5]oxathiazepin-2-yl)methyl)-5-methylpyridin-2-yl)propanoic Acid] had an EC50 of 5.3 nM. In addition, the Kd in assay [2] was under 1 nM.

Take `Cc1ccc([C@H](c2ccn3c(C(F)(F)F)nnc3c2C)C(C)(C)C(=O)O)cc1CN1CC2(CNC2)Oc2ncccc2S1(=O)=O` (single isomer, unassigned) [Example 339, (*R)-3-(3-((1′,1′-Dioxidospiro[azetidine-3,4′-pyrido[2,3-b][1,4,5]oxathiazepin]-2′(3′H)-yl)methyl)-4-methylphenyl)-2,2-dimethyl-3-(8-methyl-3-(trifluoromethyl)-[1,2,4]triazolo[4,3-a]pyridin-7-yl)propanoic Acid]: in assay [1], the EC50 came out at 6320 nM. Also, the Kd in assay [2] came to 80200 nM.

Compound `Cc1cc2cc([C@@H](CC(=O)O)c3ccc(C)c(CN4C[C@H]5CCCN5c5ncccc5S4(=O)=O)c3)n(C)c2nn1` (single isomer, unassigned) [Example 435, (*S)-3-(3,7-Dimethyl-7H-pyrrolo[2,3-c]pyridazin-6-yl)-3-(3-(((R)-5,5-dioxido-7a,8,9,10-tetrahydropyrido[2,3-f]pyrrolo[2,1-d][1,2,5]thiadiazepin-6(7H)-yl)methyl)-4-methylphenyl)propanoic Acid] yielded an EC50 in assay [1] of over 20000 nM. Further, in assay [2], the Kd was 119 nM.

`CCn1nnc2c(C)c([C@@H](CC(=O)O)c3ccc(C)c(CN4CC5(CC5)Oc5ncccc5S4(=O)=O)n3)ccc21` (single isomer, unassigned) [Example 245, (*R)-3-(6-((1′,1′-Dioxidospiro[cyclopropane-1,4′-pyrido[2,3-b][1,4,5]oxathiazepin]-2′(3′H)-yl)methyl)-5-methylpyridin-2-yl)-3-(1-ethyl-4-methyl-1H-benzo[d][1,2,3]triazol-5-yl)propanoic Acid]: in assay [1], a half-maximal response (EC50) required 140 nM. In addition, in assay [2], the Kd is under 1 nM.

In turn, `Cc1ccc([C@@H](CC(=O)O)c2ccn3c(C(F)(F)F)nnc3c2C)nc1CN1CC2(COC2)Oc2ccccc2S1(=O)=O` (single isomer, unassigned) [Example 485, (*S)-3-(6-((1,1-dioxidospiro[benzo[b][1,4,5]oxathiazepine-4,3′-oxetan]-2(3H)-yl)methyl)-5-methylpyridin-2-yl)-3-(8-methyl-3-(trifluoromethyl)-[1,2,4]triazolo[4,3-a]pyridin-7-yl)propanoic Acid] yielded an EC50 in assay [1] of 156 nM. In assay [2], the Kd is under 1 nM.

In turn, `Cc1ccc([C@@H](CC(=O)O)c2ccn3c(C(F)F)nnc3c2C)cc1CN1CC2(CC2)Oc2ncc(F)cc2S1(=O)=O` (single isomer, unassigned) [Example 528, (*R)-3-(3-(Difluoromethyl)-8-methyl-[1,2,4]triazolo[4,3-a]pyridin-7-yl)-3-(3-((8′-fluoro-1′,1′-dioxidospiro[cyclopropane-1,4′-pyrido[2,3-b][1,4,5]oxathiazepin]-2′(3′H)-yl)methyl)-4-methylphenyl)propanoic Acid] had an EC50 in assay [1] of 236 nM. Further, in assay [2], the Kd is under 1 nM.

In assay [1], `Cc1cnc(C(c2ccn3c(C(F)(F)F)nnc3c2C)C(C)(C)C(=O)O)cc1CN1CC2(CCOCC2)Oc2ncccc2S1(=O)=O` (racemic) [Example 55, (R/S)-3-(4-((1′,1′-Dioxido-2,3,5,6-tetrahydrospiro[pyran-4,4′-pyrido[2,3-b][1,4,5]oxathiazepin]-2′(3′H)-yl)methyl)-5-methylpyridin-2-yl)-2,2-dimethyl-3-(8-methyl-3-(trifluoromethyl)-[1,2,4]triazolo[4,3-a]pyridin-7-yl)propanoic Acid] yielded an EC50 of 124 nM. Besides, the dissociation constant Kd in assay [2] is under 1 nM.

Take `CCn1nnc2c(C)c([C@@H](c3cc(CN4CC5(CC5)Oc5ncc(C)cc5S4(=O)=O)c(C)cn3)C(C)(C)C(=O)O)ccc21` (single isomer, unassigned) [Example 665, (*R)-3-(1-Ethyl-4-methyl-1H-benzo[d][1,2,3]triazol-5-yl)-2,2-dimethyl-3-(5-methyl-4-((8′-methyl-1′,1′-dioxidospiro[cyclopropane-1,4′-pyrido[2,3-b][1,4,5]oxathiazepin]-2′(3′H)-yl)methyl)pyridin-2-yl)propanoic Acid]: the EC50 in assay [1] was 497 nM. The Kd in assay [2] stood at 180 nM.

Turning to `Cc1ccc([C@H](CC(=O)O)c2ccn3c(C(F)(F)F)nnc3c2C)cc1CN1CC2(CC2)Oc2nc(NCCO)ccc2S1(=O)=O` (single isomer, unassigned) [Example 101, (*S)-3-(3-((7′-((2-Hydroxyethyl)amino-1′,1′-dioxidospiro[cyclopropane-1.4′-pyrido[2,3-b][1,4,5]oxathiazepin]-2′(3′H)-yl)methyl)-4-methylphenyl)-3-(8-methyl-3-(trifluoromethyl)-[1,2,4]triazolo[4,3-a]pyridinn-7-yl)propanoic Acid], a half-maximal response in assay [1] (EC50) required 577 nM. Besides, the Kd in assay [2] was under 1 nM.

For `CCn1nnc2c(C)c([C@@H](CC(=O)O)c3ccc(C)c(CN4C[C@H]5CCCN5c5ncccc5S4(=O)=O)c3)ccc21` (single isomer, unassigned) [Example 21, (*S)-3-(3-(((R)-5,5-Dioxido-7a,8,9,10-tetrahydropyrido[2,3-f]pyrrolo[2,1-d][1,2,5]thiadiazepin-6(7H)-yl)methyl)-4-methylphenyl)-3-(1-ethyl-4-methyl-1H-benzo[d][1,2,3]triazol-5-yl)propanoic Acid], it took 28 nM to reach a half-maximal effect in assay [1] (EC50). For the same compound, the Kd in assay [2] stood at 0.273 nM.

Regarding `Cc1ccc([C@H](CC(=O)O)c2ccn3c(C(F)(F)F)nnc3c2C)nc1CN1C[C@@H]2CCCCN2c2ncccc2S1(=O)=O` (single isomer, unassigned) [Example 480, (*R)-3-(6-(((*S)-5,5-Dioxido-7,7a,8,9,10,11-hexahydro-6H-dipyrido[2,1-d:2′,3′-f][1,2,5]thiadiazepin-6-yl)methyl)-5-methylpyridin-2-yl)-3-(8-methyl-3-(trifluoromethyl)-[1,2,4]triazolo[4,3-a]pyridin-7-yl)propanoic Acid], the midpoint of the response in assay [1], the EC50, lay at 252 nM. The Kd in assay [2] was under 1 nM.

Compound `Cc1cnc2c(c1)S(=O)(=O)N(Cc1cc([C@@H](c3ccn4c(C(F)(F)F)nnc4c3C)C(C)(C)C(=O)O)cnc1C)CC1(CCOCC1)O2` (single isomer, unassigned) [Example 586, (*R)-2,2-Dimethyl-3-(8-methyl-3-(trifluoromethyl)-[1,2,4]triazolo[4,3-a]pyridin-7-yl)-3-(6-methyl-5-((8′-methyl-1′,1′-dioxido-2,3,5,6-tetrahydrospiro[pyran-4,4′-pyrido[2,3-b][1,4,5]oxathiazepin]-2′(3′H)-yl)methyl)pyridin-3-yl)propanoic Acid] registered an EC50 in assay [1] of over 20000 nM. Further, the Kd in assay [2] turned out to be 6380 nM.

Turning to `Cc1ccc(C(CC(=O)O)c2ccc3c(nnn3C)c2C(F)F)cc1CN1CC2CCCN2c2ncccc2S1(=O)=O` (stereo not drawn) [Example 71], the response in assay [1] was half-maximal at 1160 nM (EC50). For the same compound, the Kd in assay [2] is 2.6 nM.

In turn, `Cc1ccc([C@@H](CC(=O)O)c2ccn3c(C(F)(F)F)nnc3c2C)cc1CN1CC(C)(C)Oc2ncccc2S1(=O)=O` (single isomer, unassigned) [Example 270, (*R)-3-(3-((4,4-Dimethyl-1,1-dioxido-3,4-dihydro-2H-pyrido[2,3-b][1,4,5]oxathiazepin-2-yl)methyl)-4-methylphenyl)-3-(8-methyl-3-(trifluoromethyl)-[1,2,4]triazolo[4,3-a]pyridin-7-yl)propanoic Acid] had an EC50 in assay [1] of 2420 nM. Besides, the Kd in assay [2] is 1.28 nM.

Consider `CCc1c([C@@H](CC(=O)O)c2ccc(C)c(CN3C[C@H]4CCCCN4c4ncc(C)cc4S3(=O)=O)c2)ccn2c(C(F)(F)F)nnc12` (single isomer, unassigned) [Example 516, (*S)-3-(8-Ethyl-3-(trifluoromethyl)-[1,2,4]triazolo[4,3-a]pyridin-7-yl)-3-(4-methyl-3-(((*R)-3-methyl-5,5-dioxido-7,7a,8,9,10,11-hexahydro-6H-dipyrido[2,1-d:2′,3′-f][1,2,5]thiadiazepin-6-yl)methyl)phenyl)propanoic Acid], for which the response in assay [1] was half-maximal at 11.1 nM (EC50). Also, in assay [2], the Kd was under 1 nM.

Consider `COCCCNc1ccc2c(n1)OC1(CC1)CN(Cc1cc([C@H](CC(=O)O)c3ccn4c(C(F)(F)F)nnc4c3C)ccc1C)S2(=O)=O` (single isomer, unassigned) [Example 107, (*S)-3-(3-((7′-((3-Methoxypropyl)amino)-1′,1′-dioxidospiro[cyclopropane-1,4′-pyrido[2,3-b][1,4,5]oxathiazepin]-2′(3′H)-yl)methyl)-4-methylphenyl)-3-(8-methyl-3-(trifluoromethyl)-[1,2,4]triazolo[4,3-a]pyridine-7-yl)propanoic Acid], for which it took 259 nM to reach a half-maximal effect in assay [1] (EC50). Also, the Kd in assay [2] is under 1 nM.

A word on the EC50: it is the concentration giving half of the maximal effect. Read a high EC50 as a need for much substance. The Kd is the equilibrium constant for the complex coming apart.
